Data from the supplement of paper PMC10307832.

Legend:
Assay in all cases: relative viability (nuclei count vs DMSO), 5 days (fraction); higher = more cells survive
HCC-44 = test system: HCC-44
Outline: (§1)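 Lung cancer cell lines in 1536-well plates were dosed by pin tool the day after seeding, either with one drug alone or with a fixed anchor-drug dose plus five library-drug doses (not always all listed) in √10 steps. After 5 days, cells were fixed and their nuclei stained in one step (final 0.05% Triton X-100, 1% formaldehyde, 1 ug/ml Hoechst), then counted on 4× images. Relative viability is the nuclei count in treated wells divided by that in vehicle wells. Values are medians of duplicate plates.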

NCI-H460 = test system: NCI-H460
Outline: as §1

NCI-H1651 = test system: NCI-H1651
Outline: as §1

CAL-12T = test system: CAL-12T
Outline: as §1

NCI-H2085 = test system: NCI-H2085
Outline: as §1

NCI-H358 = test system: NCI-H358
Outline: as §1

NCI-H1975 = test system: NCI-H1975
Outline: as §1

BEN = test system: BEN
Outline: as §1

NCI-H838 = test system: NCI-H838
Outline: as §1

NCI-H1355 = test system: NCI-H1355
Outline: as §1

NCI-H1755 = test system: NCI-H1755
Outline: as §1

EKVX = test system: EKVX
Outline: as §1

HCC-15 = test system: HCC-15
Outline: as §1

HCC-366 = test system: HCC-366
Outline: as §1

LOU-NH91 = test system: LOU-NH91
Outline: as §1

NCI-H1395 = test system: NCI-H1395
Outline: as §1

NCI-H1437 = test system: NCI-H1437
Outline: as §1

NCI-H2023 = test system: NCI-H2023
Outline: as §1

NCI-H1734 = test system: NCI-H1734
Outline: as §1

NCI-H1563 = test system: NCI-H1563
Outline: as §1

NCI-H1650 = test system: NCI-H1650
Outline: as §1

C[C@@H]1CN(CC(=O)Nc2ccc3c(c2)Cc2cccc(-c4cc(=O)cc(N5CCOCC5)o4)c2S3)C[C@H](C)O1 + CS(=O)(=O)CCNCc1ccc(-c2ccc3ncnc(Nc4ccc(OCc5cccc(F)c5)c(Cl)c4)c3c2)o1 [Lapatinib] (partner 2 µM)
relative viability (HCC-44; first compound 0.04 µM): 0.94 | relative viability (HCC-44; first compound 0.1265 µM): 1.02 | relative viability (HCC-44; first compound 0.4 µM): 1.07 | relative viability (HCC-44; first compound 4 µM): 0.922 | relative viability (NCI-H460; first compound 0.04 µM): 0.941 | relative viability (NCI-H460; first compound 0.1265 µM): 1.02 | relative viability (NCI-H460; first compound 0.4 µM): 1.04 | relative viability (NCI-H460; first compound 4 µM): 0.799 | relative viability (NCI-H1651; first compound 0.04 µM): 0.82 | relative viability (NCI-H1651; first compound 0.1265 µM): 0.889 | relative viability (NCI-H1651; first compound 0.4 µM): 0.78 | relative viability (NCI-H1651; first compound 4 µM): 0.795 | relative viability (CAL-12T; first compound 0.04 µM): 0.28 | relative viability (CAL-12T; first compound 0.1265 µM): 0.69 | relative viability (CAL-12T; first compound 0.4 µM): 0.667 | relative viability (CAL-12T; first compound 4 µM): 0.636 | relative viability (NCI-H2085; first compound 0.04 µM): 0.402 | relative viability (NCI-H2085; first compound 0.1265 µM): 0.742 | relative viability (NCI-H2085; first compound 0.4 µM): 0.624 | relative viability (NCI-H2085; first compound 4 µM): 0.58 | relative viability (NCI-H358; first compound 0.04 µM): 0.356 | relative viability (NCI-H358; first compound 0.1265 µM): 0.427 | relative viability (NCI-H358; first compound 0.4 µM): 0.39 | relative viability (NCI-H358; first compound 4 µM): 0.417 | relative viability (NCI-H1975; first compound 0.04 µM): 0.871 | relative viability (NCI-H1975; first compound 0.1265 µM): 0.803 | relative viability (NCI-H1975; first compound 0.4 µM): 0.912 | relative viability (NCI-H1975; first compound 4 µM): 0.754 | relative viability (BEN; first compound 0.04 µM): 0.609 | relative viability (BEN; first compound 0.1265 µM): 0.666 | relative viability (BEN; first compound 0.4 µM): 0.738 | relative viability (BEN; first compound 4 µM): 0.745 | relative viability (NCI-H838; first compound 0.04 µM): 0.911 | relative viability (NCI-H838; first compound 0.1265 µM): 0.911 | relative viability (NCI-H838; first compound 0.4 µM): 0.883 | relative viability (NCI-H838; first compound 4 µM): 0.781 | relative viability (NCI-H1355; first compound 0.04 µM): 0.713 | relative viability (NCI-H1355; first compound 0.1265 µM): 0.992 | relative viability (NCI-H1355; first compound 0.4 µM): 0.816 | relative viability (NCI-H1355; first compound 4 µM): 0.97 | relative viability (NCI-H1755; first compound 0.04 µM): 1.1 | relative viability (NCI-H1755; first compound 0.1265 µM): 0.995 | relative viability (NCI-H1755; first compound 0.4 µM): 1 | relative viability (NCI-H1755; first compound 4 µM): 0.932 | relative viability (EKVX; first compound 0.04 µM): 0.271 | relative viability (EKVX; first compound 0.1265 µM): 0.179 | relative viability (EKVX; first compound 0.4 µM): 0.224 | relative viability (EKVX; first compound 4 µM): 0.211 | relative viability (HCC-15; first compound 0.04 µM): 0.866 | relative viability (HCC-15; first compound 0.1265 µM): 0.736 | relative viability (HCC-15; first compound 0.4 µM): 0.929 | relative viability (HCC-15; first compound 4 µM): 0.763 | relative viability (HCC-366; first compound 0.04 µM): 0.383 | relative viability (HCC-366; first compound 0.1265 µM): 0.974 | relative viability (HCC-366; first compound 0.4 µM): 1.17 | relative viability (HCC-366; first compound 4 µM): 0.824 | relative viability (LOU-NH91; first compound 0.04 µM): 0.689 | relative viability (LOU-NH91; first compound 0.1265 µM): 0.792 | relative viability (LOU-NH91; first compound 0.4 µM): 0.676 | relative viability (LOU-NH91; first compound 4 µM): 0.733 | relative viability (NCI-H1395; first compound 0.04 µM): 0.928 | relative viability (NCI-H1395; first compound 0.1265 µM): 1 | relative viability (NCI-H1395; first compound 0.4 µM): 1.06 | relative viability (NCI-H1395; first compound 4 µM): 0.93 | relative viability (NCI-H1437; first compound 0.04 µM): 0.758 | relative viability (NCI-H1437; first compound 0.1265 µM): 0.703 | relative viability (NCI-H1437; first compound 0.4 µM): 0.834 | relative viability (NCI-H1437; first compound 4 µM): 0.702 | relative viability (NCI-H2023; first compound 0.04 µM): 0.176 | relative viability (NCI-H2023; first compound 0.1265 µM): 0.793 | relative viability (NCI-H2023; first compound 0.4 µM): 0.536 | relative viability (NCI-H2023; first compound 4 µM): 0.719 | relative viability (NCI-H1734; first compound 0.04 µM): 1.02 | relative viability (NCI-H1734; first compound 0.1265 µM): 1.17 | relative viability (NCI-H1734; first compound 0.4 µM): 1.03 | relative viability (NCI-H1734; first compound 4 µM): 1.23 | relative viability (NCI-H1563; first compound 0.04 µM): 0.834 | relative viability (NCI-H1563; first compound 0.1265 µM): 0.883 | relative viability (NCI-H1563; first compound 0.4 µM): 0.859 | relative viability (NCI-H1563; first compound 4 µM): 0.702 | relative viability (NCI-H1650; first compound 0.04 µM): 0.287 | relative viability (NCI-H1650; first compound 0.1265 µM): 0.812 | relative viability (NCI-H1650; first compound 0.4 µM): 0.719 | relative viability (NCI-H1650; first compound 4 µM): 0.588

CC(C)Oc1cc(Nc2nc(N[C@@H](C)c3ccc(F)cn3)ncc2Cl)n[nH]1 [AZ23] + CS(=O)(=O)CCNCc1ccc(-c2ccc3ncnc(Nc4ccc(OCc5cccc(F)c5)c(Cl)c4)c3c2)o1 [Lapatinib] (partner 2 µM)
relative viability (HCC-44; first compound 0.01 µM): 1.01 | relative viability (HCC-44; first compound 0.03162 µM): 1.21 | relative viability (HCC-44; first compound 0.3162 µM): 1.09 | relative viability (NCI-H460; first compound 0.01 µM): 0.519 | relative viability (NCI-H460; first compound 0.03162 µM): 1.1 | relative viability (NCI-H460; first compound 0.3162 µM): 1.5 | relative viability (NCI-H1651; first compound 0.01 µM): 0.685 | relative viability (NCI-H1651; first compound 0.03162 µM): 0.921 | relative viability (NCI-H1651; first compound 0.3162 µM): 0.973 | relative viability (CAL-12T; first compound 0.03162 µM): 0.701 | relative viability (CAL-12T; first compound 0.3162 µM): 0.647 | relative viability (NCI-H2085; first compound 0.01 µM): 0.771 | relative viability (NCI-H2085; first compound 0.03162 µM): 0.735 | relative viability (NCI-H2085; first compound 0.3162 µM): 0.772 | relative viability (NCI-H358; first compound 0.01 µM): 0.505 | relative viability (NCI-H358; first compound 0.03162 µM): 0.433 | relative viability (NCI-H358; first compound 0.3162 µM): 0.392 | relative viability (NCI-H1975; first compound 0.01 µM): 1.27 | relative viability (NCI-H1975; first compound 0.03162 µM): 0.961 | relative viability (NCI-H1975; first compound 0.3162 µM): 0.862 | relative viability (BEN; first compound 0.01 µM): 0.807 | relative viability (BEN; first compound 0.03162 µM): 0.906 | relative viability (BEN; first compound 0.3162 µM): 0.708 | relative viability (NCI-H838; first compound 0.01 µM): 0.99 | relative viability (NCI-H838; first compound 0.03162 µM): 1.06 | relative viability (NCI-H838; first compound 0.3162 µM): 0.908 | relative viability (NCI-H1355; first compound 0.01 µM): 1.16 | relative viability (NCI-H1355; first compound 0.03162 µM): 1.07 | relative viability (NCI-H1355; first compound 0.3162 µM): 0.939 | relative viability (NCI-H1755; first compound 0.01 µM): 1.28 | relative viability (NCI-H1755; first compound 0.03162 µM): 1.16 | relative viability (NCI-H1755; first compound 0.3162 µM): 1.05 | relative viability (EKVX; first compound 0.01 µM): 0.188 | relative viability (EKVX; first compound 0.03162 µM): 0.207 | relative viability (EKVX; first compound 0.3162 µM): 0.192 | relative viability (HCC-15; first compound 0.01 µM): 1.08 | relative viability (HCC-15; first compound 0.03162 µM): 0.839 | relative viability (HCC-15; first compound 0.3162 µM): 0.784 | relative viability (HCC-366; first compound 0.01 µM): 0.905 | relative viability (HCC-366; first compound 0.03162 µM): 1.52 | relative viability (HCC-366; first compound 0.3162 µM): 1.11 | relative viability (LOU-NH91; first compound 0.01 µM): 0.674 | relative viability (LOU-NH91; first compound 0.03162 µM): 0.787 | relative viability (LOU-NH91; first compound 0.3162 µM): 0.716 | relative viability (NCI-H1395; first compound 0.03162 µM): 0.943 | relative viability (NCI-H1395; first compound 0.3162 µM): 1.03 | relative viability (NCI-H1437; first compound 0.01 µM): 0.729 | relative viability (NCI-H1437; first compound 0.03162 µM): 0.975 | relative viability (NCI-H1437; first compound 0.3162 µM): 0.957 | relative viability (NCI-H2023; first compound 0.03162 µM): 0.945 | relative viability (NCI-H2023; first compound 0.3162 µM): 0.929 | relative viability (NCI-H1734; first compound 0.01 µM): 1.27 | relative viability (NCI-H1734; first compound 0.03162 µM): 1.23 | relative viability (NCI-H1734; first compound 0.3162 µM): 1.11 | relative viability (NCI-H1563; first compound 0.01 µM): 0.915 | relative viability (NCI-H1563; first compound 0.03162 µM): 1.06 | relative viability (NCI-H1563; first compound 0.3162 µM): 0.921 | relative viability (NCI-H1650; first compound 0.01 µM): 0.762 | relative viability (NCI-H1650; first compound 0.03162 µM): 0.922 | relative viability (NCI-H1650; first compound 0.3162 µM): 0.54
